Laboratory results taken from US20060211670A1, “Antitumoral18a-homoestra-1,3,5(10)-trien-3yl 2-substituted sulfamates” (priority 2003, published 2006).

How the values were obtained:
[1] = system: NCl-H460 human non-small-cell lung cancer cells; assay: Inhibition of cell proliferation (crystal violet), NCl-H460; type: cell-based; settings: NCl-H460, 4 days incubation
Protocol: (§1) Cell cultures of the following cell lines were prepared in 96-well microtiter plates: • 1. MaTu/ADR multidrug-resistant human breast tumor cells (Epo GmbH Berlin), 5000 cells/well. • 2. HCT116 human colon tumor cells (ATCC CCL-247), 3000 cells/well. • 3. NCl-H460 human non-small-cell lung cancer cells (ATCC HTB-177), 3000 cells/well. • 4. DU145 human prostate tumor cells (ATCC HTB-81), 5000 cells/well. • 5. HMVEC human primary dermal microvascular endothelial cells, 7500 cells/well.
(§2) After 24 hours of incubation in a cell culture incubator at 37° C., the cells of a microtiter plate were stained with crystal violet (reference plate), while the cells in the test plates were incubated for 4 days with the test substances in the concentrations […], as well as with the DMSO solvent by itself (solvent control). The cell proliferation was determined by staining cells with crystal violet. The extinction of the crystal violet was determined by photometry at 595 nm. The percentage of the change in the cell number in the test plates was determined after the extinction values were normalized to the reference plate (0%) and to the solvent control (100%). The semi-maximal inhibition of the cell growth (IC50) was determined as the substance concentration, in which 50% of the cell number of the solvent controls were present.

[2] = system: HCT116 human colon tumor cells; assay: Inhibition of cell proliferation (crystal violet), HCT116; type: cell-based; settings: HCT116, 4 days incubation
Protocol: as §1, §2

[3] = system: DU145 human prostate tumor cells; assay: Inhibition of cell proliferation (crystal violet), DU145; type: cell-based; settings: DU145, 4 days incubation
Protocol: as §1, §2

[4] = system: HMVEC human primary dermal microvascular endothelial cells; assay: Inhibition of cell proliferation (crystal violet), HMVEC; type: cell-based; settings: 4 days incubation
Protocol: as §1, §2

[5] = system: MaTu/ADR multidrug-resistant human breast tumor cells; assay: Inhibition of cell proliferation (crystal violet), MaTu/ADR; type: cell-based; settings: 4 days incubation
Protocol: as §1, §2

[6] = molecular target: T1, microtubular protein (tubulin) from pig brains (Sus scrofa, UniProt P02550+P02554); assay: Inhibition of tubulin polymerization (turbidimetry at 340 nm); type: biochemical; settings: pig brain microtubular protein 1 mg/ml, 0.25 mmol GTP, 37° C.
T1 construct: microtubular protein was purified from pig brains via cydic assembling/disassembling; from tissue; host or cells: pig brain
T1 sequence (P02550 whole entry): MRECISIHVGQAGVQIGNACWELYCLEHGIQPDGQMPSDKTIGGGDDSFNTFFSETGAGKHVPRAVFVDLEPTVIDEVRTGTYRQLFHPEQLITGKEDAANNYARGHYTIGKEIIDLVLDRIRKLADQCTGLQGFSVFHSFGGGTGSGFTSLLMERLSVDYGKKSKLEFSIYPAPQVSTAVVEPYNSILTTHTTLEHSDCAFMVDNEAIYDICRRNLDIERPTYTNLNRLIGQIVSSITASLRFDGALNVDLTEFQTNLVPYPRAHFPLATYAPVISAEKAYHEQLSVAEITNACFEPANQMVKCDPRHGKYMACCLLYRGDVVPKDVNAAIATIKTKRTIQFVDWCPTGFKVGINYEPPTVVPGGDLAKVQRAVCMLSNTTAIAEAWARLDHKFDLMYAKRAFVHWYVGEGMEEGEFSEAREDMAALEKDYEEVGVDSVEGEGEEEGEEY
T1 sequence (P02554 whole entry): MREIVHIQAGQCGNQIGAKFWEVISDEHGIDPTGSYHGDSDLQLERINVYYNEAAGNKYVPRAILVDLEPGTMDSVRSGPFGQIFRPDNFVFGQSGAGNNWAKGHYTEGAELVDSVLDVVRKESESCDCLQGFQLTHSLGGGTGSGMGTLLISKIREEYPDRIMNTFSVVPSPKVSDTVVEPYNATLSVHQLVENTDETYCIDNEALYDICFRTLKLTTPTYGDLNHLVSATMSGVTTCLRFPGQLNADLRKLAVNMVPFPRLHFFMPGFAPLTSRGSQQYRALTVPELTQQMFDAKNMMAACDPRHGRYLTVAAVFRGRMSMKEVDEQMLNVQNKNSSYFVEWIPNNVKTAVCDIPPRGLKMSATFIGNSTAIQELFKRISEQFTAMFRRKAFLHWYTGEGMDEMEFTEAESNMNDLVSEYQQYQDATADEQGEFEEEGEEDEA
Protocol: The in-vitro testing of the tubulin polymerization influence was performed as follows:
The buffer system used had the following composition: 20 mmol of PIPES (1,4-piperazine-diethane-sulfonic acid, pKa 6.8), 80 mmol of NaCl, 0.5 mmol of MgCl2, 1 mmol of EGTA (ethylene glycol-bis-(2-aminoethylene)-tetraacetic acid).
For active ingredient testing, protein concentrations of 1 mg/ml (about 10^−5 mmol of tubulin) were used. The determination of protein was carried out according to the Lowry Method (Lowry et al. J. Biol. Chem. 1951, 193, 265-75) with bovine serum albumin as a standard. The assembling of microtubuli was carried out in the presence of 0.25 mmol of GTP and heating the samples to 37° C.
The microtubulus formation was examined by means of turbidimetry at a wavelength of 340 nm.
Testing of the active ingredients was carried out by their addition at the beginning of the assembling or in the state of equilibrium. Deviations of turbidity curves from the control characterize its activity. To monitor action and to evaluate the measured turbidity values, a transmission electron microscopic study (CEM 902 A, Zeiss/Oberkochen) of the assemblates was always performed after negative staining with 1% aqueous uranyl acetate.

Row | SMILES | IC50 [1] | IC50 [2] | IC50 [3] | IC50 [4] | IC50 [5] | IC50 ([1]; Homo sapiens, 96 h) | IC50 ([2]; Homo sapiens, HCT-116, 96 h) | IC50 [6] | IC50 ([3]; Homo sapiens, DU-145, 96 h) | IC50 ([4]; Homo sapiens, 96 h) | IC50 ([5]; Homo sapiens, 96 h)
1 | CCOc1cc2c(cc1OS(N)(=O)=O)CC[C@@H]1[C@@H]2CC[C@]2(CC)[C@@H](O)CC[C@@H]12 [(2), 2-Ethoxy-17β-hydroxy-18a-homoestra-1,3,5(10)trien-3-yl sulfamate] | 300 nM | 400 nM | 900 nM | 500 nM | 100 nM | – | – | – | – | – | –
2 | CC[C@]12CC[C@@H]3c4cc(OC)c(OS(N)(=O)=O)cc4CC[C@H]3[C@@H]1CC[C@@H]2O [(1), 17β-Hydroxy-2-methoxy-18a-homoestra-1,3,5(10)-trien-3-yl sulfamate] | – | – | – | – | – | < 100 nM | < 100 nM | 500 nM | 150 nM | < 100 nM | < 100 nM
3 | CCc1cc2c(cc1OS(N)(=O)=O)CC[C@@H]1[C@@H]2CC[C@]2(CC)[C@@H](OS(N)(=O)=O)CC[C@@H]12 [(6), 2-Ethyl-18a-homoestra-1,3,5(10)-triene-3,17β-diyl Sulfamate] | 180 nM | 180 nM | 180 nM | < 100 nM | 100 nM | – | – | – | – | – | –
4 | CC[C@]12CC[C@@H]3c4cc(OC)c(OS(N)(=O)=O)cc4CC[C@H]3[C@@H]1CC[C@@H]2OC [(5), 2,17β-Dimethoxy-18a-homoestra-1,3,5(10)-trien-3-yl Sulfamate] | 130 nM | < 100 nM | 190 nM | < 100 nM | < 100 nM | – | – | – | – | – | –
5 | COc1cc2c(cc1O)CC[C@@H]1[C@@H]2CC[C@]2(C)[C@@H](O)CC[C@@H]12 [2-Methoxyestradiol, reference compound] | 1800 nM | 1100 nM | 1900 nM | 2200 nM | 200 nM | – | – | 2700 nM | – | – | –
6 | CC[C@@]12CCC[C@H]1[C@@H]1CCc3cc(OS(N)(=O)=O)c(OC)cc3[C@H]1CC2 [(4), 2-Methoxy-18a-homoestra-1,3,5(10)-trien-3-yl sulfamate] | – | – | – | – | – | 500 nM | 600 nM | 1800 nM | 600 nM | 600 nM | 450 nM
7 | CC(=O)O[C@H]1C(=O)[C@@]2(C)[C@H]([C@H](OC(=O)c3ccccc3)[C@]3(O)C[C@H](OC(=O)[C@H](O)[C@@H](NC(=O)c4ccccc4)c4ccccc4)C(C)=C1C3(C)C)[C@]1(OC(C)=O)CO[C@@H]1C[C@@H]2O [Taxol, reference compound] | – | – | – | – | – | 4 nM | 4 nM | – | 4 nM | 4 nM | 400 nM
